How the values were obtained:
Settings in all cases: 72 h
Hs578T [1] = test system: Hs578T
Summary of the method: (§1)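 Compound dissolved in 5 µl medium was placed in 384-well plates before 20 µl of breast cancer cell suspension was added, and the plates were incubated for 72 h. Cells then received 2.5 µl CellTiter-Blue for 2 h at 37 °C, and fluorescence was read at 560/590 nm. EC50 values come from percent-inhibition dose-response fits that were censored at the highest concentration, with plates normalised to vehicle and a positive kill control and rows with a zero drug sensitivity score excluded.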

HCC1143 [2] = test system: HCC1143
Summary of the method: as §1

MFM-223 [3] = test system: MFM-223
Summary of the method: as §1

MDA-MB-468 [4] = test system: MDA-MB-468
Summary of the method: as §1

HCC1937 [5] = test system: HCC1937
Summary of the method: as §1

SK-BR-3 = test system: SK-BR-3
Summary of the method: as §1

MDA-MB-436 [6] = test system: MDA-MB-436
Summary of the method: as §1

MDA-MB-231 [7] = test system: MDA-MB-231
Summary of the method: as §1

BT-549 [8] = test system: BT-549
Summary of the method: as §1

HCC1599 [9] = test system: HCC1599
Summary of the method: as §1

CAL-120 [10] = test system: CAL-120
Summary of the method: as §1

BT-474 [11] = test system: BT-474
Summary of the method: as §1

Hs578T [12] = test system: Hs578T; remark: listed apart in the source
Description: (§2)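 Drug sensitivity and resistance testing (DSRT) of breast cancer cell lines in 384-well plates, 5 concentrations in 10-fold dilutions over a compound-specific 10,000-fold range. After 72 h, cytotoxicity was read by CellTox Green fluorescence and viability by CellTiter-Glo luminescence (multiplexed), normalised to DMSO and benzethonium chloride controls. EC50 is the inflection point of the fitted dose-response curve (bottom asymptote free, so it can be relative for partial curves) and is censored at the highest tested concentration. Rows with DSS 0 (no meaningful response) were excluded.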

CAL-51 [13] = test system: CAL-51
Description: as §2

MDA-MB-453 [14] = test system: MDA-MB-453
Description: as §2

MDA-MB-468 [15] = test system: MDA-MB-468; remark: listed apart in the source
Description: as §2

HCC1937 [16] = test system: HCC1937; remark: listed apart in the source
Description: as §2

MDA-MB-436 [17] = test system: MDA-MB-436; remark: listed apart in the source
Description: as §2

CAL-148 [18] = test system: CAL-148
Description: as §2

CAL-85-1 [19] = test system: CAL-85-1
Description: as §2

MCF-10A [20] = test system: MCF-10A
Description: as §2

MDA-MB-231 [21] = test system: MDA-MB-231; remark: listed apart in the source
Description: as §2

HDQ-P1 [22] = test system: HDQ-P1
Description: as §2

BT-549 [23] = test system: BT-549; remark: listed apart in the source
Description: as §2

HCC1599 [24] = test system: HCC1599; remark: listed apart in the source
Description: as §2

BT-474 [25] = test system: BT-474; remark: listed apart in the source
Description: as §2

HCC1143 [26] = test system: HCC1143; remark: listed apart in the source
Summary of the method: (§3)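 Breast cancer cell lines (20 µl suspension) were seeded into 384-well plates holding compound at 5 concentrations in 10-fold steps over a compound-specific 10,000-fold range, then incubated 72 h. Cell death was read first by CellTox Green fluorescence (485/520 nm), then viability by CellTiter-Glo luminescence after 10 min at room temperature. Each plate was normalised to 0.1 % DMSO and a positive kill control. EC50 was fitted from the dose-response curves and censored at the top concentration.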

CAL-148 [27] = test system: CAL-148; remark: listed apart in the source
Summary of the method: as §3

MCF-10A [28] = test system: MCF-10A; remark: listed apart in the source
Summary of the method: as §3

CAL-51 [29] = test system: CAL-51; remark: listed apart in the source
Summary of the method: as §1

MDA-MB-453 [30] = test system: MDA-MB-453; remark: listed apart in the source
Summary of the method: as §1

CAL-148 [31] = test system: CAL-148; remark: listed apart in the source
Summary of the method: as §1

CAL-85-1 [32] = test system: CAL-85-1; remark: listed apart in the source
Summary of the method: as §1

HDQ-P1 [33] = test system: HDQ-P1; remark: listed apart in the source
Summary of the method: as §1

DU-4475 [34] = test system: DU-4475
Summary of the method: as §1

MFM-223 [35] = test system: MFM-223; remark: listed apart in the source
Description: as §2

CAL-120 [36] = test system: CAL-120; remark: listed apart in the source
Description: as §2

DU-4475 [37] = test system: DU-4475; remark: listed apart in the source
Description: as §2

HCC1143 [38] = test system: HCC1143; remark: listed apart in the source
Description: as §2

Structure (SMILES) | EC50, CellTiter-Blue viability (Hs578T [1]) [nM] | EC50, CellTiter-Blue viability (HCC1143 [2]) [nM] | EC50, CellTiter-Blue viability (MFM-223 [3]) [nM] | EC50, CellTiter-Blue viability (MDA-MB-468 [4]) [nM] | EC50, CellTiter-Blue viability (HCC1937 [5]) [nM] | EC50, CellTiter-Blue viability (SK-BR-3) [nM] | EC50, CellTiter-Blue viability (MDA-MB-436 [6]) [nM] | EC50, CellTiter-Blue viability (MDA-MB-231 [7]) [nM] | EC50, CellTiter-Blue viability (BT-549 [8]) [nM] | EC50, CellTiter-Blue viability (HCC1599 [9]) [nM] | EC50, CellTiter-Blue viability (CAL-120 [10]) [nM] | EC50, CellTiter-Blue viability (BT-474 [11]) [nM] | EC50, CellTox Green (Hs578T [12]) [nM] | EC50, CellTox Green (CAL-51 [13]) [nM] | EC50, CellTox Green (MDA-MB-453 [14]) [nM] | EC50, CellTox Green (MDA-MB-468 [15]) [nM] | EC50, CellTox Green (HCC1937 [16]) [nM] | EC50, CellTox Green (MDA-MB-436 [17]) [nM] | EC50, CellTox Green (CAL-148 [18]) [nM] | EC50, CellTox Green (CAL-85-1 [19]) [nM] | EC50, CellTox Green (MCF-10A [20]) [nM] | EC50, CellTox Green (MDA-MB-231 [21]) [nM] | EC50, CellTox Green (HDQ-P1 [22]) [nM] | EC50, CellTox Green (BT-549 [23]) [nM] | EC50, CellTox Green (HCC1599 [24]) [nM] | EC50, CellTox Green (BT-474 [25]) [nM] | EC50, CellTiter-Glo (HCC1143 [26]) [nM] | EC50, CellTiter-Glo (CAL-148 [27]) [nM] | EC50, CellTiter-Glo (MCF-10A [28]) [nM] | EC50, CellTiter-Blue viability (CAL-51 [29]) [nM] | EC50, CellTiter-Blue viability (MDA-MB-453 [30]) [nM] | EC50, CellTiter-Blue viability (CAL-148 [31]) [nM] | EC50, CellTiter-Blue viability (CAL-85-1 [32]) [nM] | EC50, CellTiter-Blue viability (HDQ-P1 [33]) [nM] | EC50, CellTiter-Blue viability (DU-4475 [34]) [nM] | EC50, CellTox Green (MFM-223 [35]) [nM] | EC50, CellTox Green (CAL-120 [36]) [nM] | EC50, CellTox Green (DU-4475 [37]) [nM] | EC50, CellTox Green (HCC1143 [38]) [nM]
COc1cc(Nc2c(C#N)cnc3cc(OCCCN4CCN(C)CC4)c(OC)cc23)c(Cl)cc1Cl [Bosutinib] | 4520 | 1440 | 5250 | 3180 | 2670 | 2130 | 3110 | 2410 | 3360 | 2100 | 1960 | 3120 | 576 | 1550 | 7280 | 3540 | 5400 | 6620 | 2050 | 1950 | 2080 | 2030 | 5940 | 7580 | > 10000 | 2830 | 1440 | 7590 | 442 | 5020 | 2670 | 1860 | 3180 | 2550 | 5670 |  |  |  | 
CCN(CC)CCCC(C)Nc1ccnc2cc(Cl)ccc12 (configuration not stated) [Chloroquine] |  |  |  |  |  |  |  |  |  |  |  |  | 18800 | 50800 | 13400 | 568 | 23900 | 5410 | 5120 | 20800 | 20400 | 10400 | 34600 | 24800 | 17900 | 4950 | 43200 | 12400 | 17300 |  |  |  |  |  |  | 15300 | 38400 | 96800 | 
C=CCn1c(=O)c2cnc(Nc3ccc(N4CCN(C)CC4)cc3)nc2n1-c1cccc(C(C)(C)O)n1 [MK1775] | 349 | 829 | 182 | 797 | 190 | 120 | 350 | 303 | 569 | 632 | 301 | 249 | 2130 | 154 |  | 156 |  | 69.7 | 143 | 331 | 1270 | 203 | 467 | 1430 | 54.1 | 928 | 558 | 190 | 621 | 382 | 310 | 242 | 507 | 318 | 477 | 267 | 1380 |  | 5090
O=[N+]([O-])c1ccc2c(c1)S(=O)(=O)C=C2 [Stattic] |  |  |  |  |  |  |  |  |  |  |  |  | 1710 | 1390 | 27400 | 1130 | 349 | 14400 | 3870 | 1110 | 1190 | 5150 | 34000 | 1070 |  | 1890 | 13200 | 4640 | 17400 |  |  |  |  |  |  | 1230 | 34300 |  | 13800
O=C(CCCCCCC(=O)Nc1ccccc1)NO [Vorinostat] | 3080 | 2590 | 2050 | 1480 | 2480 | 617 |  | 3110 | 2860 | 3270 | 1720 | 2290 | 948 | 2660 |  | 6570 |  |  | 8260 |  |  | 1720 |  | > 10000 |  | 6410 | 4590 | 2140 | 8980 |  | 960 | 3250 | 3890 |  | 9000 |  | 6840 |  | 6130
